Results on one molecule are retold here after article PMC8677773, “Comprehensive exploration of chemical space using trisubstituted carboranes” (Scientific Reports, 2021).

The test system of the experiment is recombinant rabies virus strain 1088 expressing gaussia luciferase (1088/GLuc). In words: microbe, parasite or virus in culture. Conditions: Lyssavirus rabies, N2a, 72 h, read-out: RABV IC50 (concentration required to inhibit the relative light units by 50%). It is filed as cell-based.

`NC(=O)c1nc(F)c[nH]c1=O` [Favipiravir]: the IC50 stood at 38 µM.
